Data: patent US20230183237A1, “COMPETITIVE AND NONCOMPETITIVE INHIBITORS OF THE MUSCARINIC ACETYLCHOLINE RECEPTOR M5” (Vanderbilt University, priority 2020, published 2023)
Where two headings read alike, the source gives them in different places.

Target: T1, hM5 (Homo sapiens, UniProt P08912)
T1 construct: expressed in transfected cells
T1 sequence (P08912 1-532): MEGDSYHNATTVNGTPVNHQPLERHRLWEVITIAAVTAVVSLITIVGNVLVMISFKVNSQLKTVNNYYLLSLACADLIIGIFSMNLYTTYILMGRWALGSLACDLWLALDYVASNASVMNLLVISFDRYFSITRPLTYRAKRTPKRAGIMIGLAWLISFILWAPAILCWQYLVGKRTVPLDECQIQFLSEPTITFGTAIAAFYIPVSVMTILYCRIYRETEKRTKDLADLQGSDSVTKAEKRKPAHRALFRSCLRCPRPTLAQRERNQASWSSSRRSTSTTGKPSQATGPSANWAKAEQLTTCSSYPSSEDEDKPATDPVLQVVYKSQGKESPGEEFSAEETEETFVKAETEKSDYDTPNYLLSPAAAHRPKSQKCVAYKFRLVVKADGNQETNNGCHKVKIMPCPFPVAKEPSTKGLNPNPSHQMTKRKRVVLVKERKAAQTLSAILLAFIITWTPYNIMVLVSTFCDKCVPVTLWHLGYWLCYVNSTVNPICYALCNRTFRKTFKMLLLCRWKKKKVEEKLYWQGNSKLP
Experiment: Calcium mobilization concentration-response (IC50 vs EC80 acetylcholine), CHO hM5
Format: cell-based
Conditions: CELL LINE hM5, read-out: IC50
Outline: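 IC50 values derive from percent maximal acetylcholine response after an EC80 ACh addition, measured as kinetic calcium fluorescence (static ratio, max−min). Test compounds were added 140 s before agonist. Cells: stable hM5-CHO in HEPES-buffered HBSS with 2.5 mM probenecid, pH 7.4; ≥3 independent triplicate determinations.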

[1] = calcium mobilization, EC80 acetylcholine addition

| SMILES | IC50 [1] | IC50 (vs EC80 acetylcholine) |
| --- | --- | --- |
| Cn1ncc(S(=O)(=O)N2CCC(c3cn4ncnc4cc3Cl)CC2)c1C(F)(F)F [Compound 330, 7-chloro-6-(1-((1-methyl-5-(trifluoromethyl)-1H-pyrazol-4-yl)sulfonyl)piperidin-4-yl)-[1,2,4]triazolo[1,5-a]pyridine] | 52 nM | – |
| Cc1sc(C#N)nc1C1=CCN(S(=O)(=O)c2cnn(C)c2C)CC1 [Compound 204, 4-(1-((1,5-dimethyl-1H-pyrazol-4-yl)sulfonyl)-1,2,3,6-tetrahydropyridin-4-yl)-5-methylthiazole-2-carbonitrile] | > 10000 nM | – |
| Cc1cc2c(cc1S(=O)(=O)N1CCC(c3ccc4ncnn4c3C)CC1)C(C)CO2 (centres unmarked) [Compound 85, 6-(1-((3,6-dimethyl-2,3-dihydrobenzofuran-5-yl)sulfonyl)piperidin-4-yl)-5-methyl-[1,2,4]triazolo[1,5-a]pyridine] | 6300 nM | – |
| O=S(=O)(c1ccc2ncccc2c1)N1CCC(c2cc3cc[nH]c3nn2)CC1 [Compound 23, 6-((4-(7H-pyrrolo[2,3-c]pyridazin-3-yl)piperidin-1-yl)sulfonyl)quinoline] | 2560 nM | – |
| O=S(=O)(c1cc2c(cc1F)OCC2)N1CCC(c2cn3ncnc3cc2C(F)(F)F)CC1 [Compound 110, 6-(1-((6-fluoro-2,3-dihydrobenzofuran-5-yl)sulfonyl)piperidin-4-yl)-7-(trifluoromethyl)-[1,2,4]triazolo[1,5-a]pyridine] | 2100 nM | – |
| C=Cc1cc2ncnn2cc1C1=CCN(S(=O)(=O)c2cnn(C)c2C)CC1 [Compound 147, 6-(1-((1,5-dimethyl-1H-pyrazol-4-yl)sulfonyl)-1,2,3,6-tetrahydropyridin-4-yl)-7-vinyl-[1,2,4]triazolo[1,5-a]pyridine] | 51 nM | – |
| CCc1cc2ncnn2cc1C1CCN(S(=O)(=O)c2cnn(C)c2C)CC1 [Compound 297, 6-(1-((1,5-dimethyl-1H-pyrazol-4-yl)sulfonyl)piperidin-4-yl)-7-ethyl-[1,2,4]triazolo[1,5-a]pyridine] | 73 nM | – |
| Cc1ncc(S(=O)(=O)N2CCC(F)(c3cn4ncnc4cc3C)CC2)s1 [Compound 245, 5-((4-fluoro-4-(7-methyl-[1,2,4]triazolo[1,5-a]pyridin-6-yl)piperidin-1-yl)sulfonyl)-2-methylthiazole] | > 10000 nM | – |
| Cc1cc2ncnn2cc1C1CCN(S(=O)(=O)c2c(C)nn(C)c2Cl)CC1 [Compound 138, 6-(1-((5-chloro-1,3-dimethyl-1H-pyrazol-4-yl)sulfonyl)piperidin-4-yl)-7-methyl-[1,2,4]triazolo[1,5-a]pyridine] | 26 nM | – |
| Cc1cc2ncnn2nc1C1CCN(S(=O)(=O)c2cnn(C)c2C)CC1 [Compound 165, 6-(1-((1,5-dimethyl-1H-pyrazol-4-yl)sulfonyl)piperidin-4-yl)-7-methyl-[1,2,4]triazolo[1,5-b]pyridazine] | 60 nM | – |
| O=S(=O)(c1c(Cl)nc2sccn12)N1CCC(c2cn3ncnc3cc2C(F)(F)F)CC1 [Compound 340, 6-chloro-5-((4-(7-(trifluoromethyl)-[1,2,4]triazoto[1,5-a]pyridin-6-yl)piperidin-1-yl)sulfonyl)imidazo[2,1-b]thiazole] | 173 nM | – |
| O=S(=O)(c1ccc2ncsc2c1)N1CCC(c2cn3ncnc3cc2F)CC1 [Compound 107, 6-((4-(7-fluoro-[1,2,4]triazolo[1,5-a]pyridin-6-yl)piperidin-1-yl)sulfonyl)benzo[d]thiazole] | > 10000 nM | – |
| Cc1cc2ncnn2cc1C1CCN(S(=O)(=O)c2ccc3c(c2)nnn3C)CC1 [Compound 124, 1-methyl-5-((4-(7-methyl-[1,2,4]triazolo[1,5-a]pyridin-6-yl)piperidin-1-yl)sulfonyl)-1H-benzo[d][1,2,3]triazole] | > 10000 nM | – |
| Cc1cc2ncnn2cc1C1CCN(S(=O)(=O)c2ncn(C)c2Cl)CC1 [Compound 321, 6-(1-((5-chloro-1-methyl-1H-imidazol-4-yl)sulfonyl)piperidin-4-yl)-7-methyl-[1,2,4]triazolo[1,5-a]pyridine] | 1100 nM | – |
| Cc1ncc(S(=O)(=O)N2CC=C(c3cn4ncnc4cc3Cl)CC2)n1C [Compound 224, 7-chloro-6-(1-((1,2-dimethyl-1H-imidazol-5-yl)sulfonyl)-1,2,3,6-tetrahydropyridin-4-yl)-[1,2,4]triazolo[1,5-a]pyridine] | 12 nM | – |
| O=S(=O)(c1cc2c(cc1F)OCC2)N1CCC(c2cc3cc[nH]c3cn2)CC1 [Compound 93, 5-(1-((6-fluoro-2,3-dihydrobenzofuran-5-yl)sulfonyl)piperidin-4-yl)-1H-pyrrolo[2,3-c]pyridine] | > 10000 nM | – |
| Cc1cc(C#N)ncc1C1=CCN(S(=O)(=O)c2cnn(C)c2C)CC1 [Compound 239, 1′-((1,5-dimethyl-1H-pyrazol-4-yl)sulfonyl)-4-methyl-1′,2′,3′,6′-tetrahydro-[3,4′-bipyridine]-6-carbonitrile] | > 10000 nM | – |
| O=S(=O)(c1ccc2ncsc2c1)N1CCC(c2cn3ncnc3cc2C(F)(F)F)CC1 [Compound 111, 6-((4-(7-(trifluoromethyl)-[1,2,4]triazolo[1,5-a]pyridin-6-yl)piperidin-1-yl)sulfonyl)benzo[d]thiazole] | 1800 nM | – |
| Cc1nc(C)c(S(=O)(=O)N2CCC(c3cn4ncnc4cc3F)CC2)s1 [Compound 235, 5-((4-(7-fluoro-[1,2,4]triazolo[1,5-a]pyridin-6-yl)piperidin-1-yl)sulfonyl)-2,4-dimethylthiazole] | > 10000 nM | – |
| Cc1cc(C#N)cnc1C1CCN(S(=O)(=O)c2ccc3c(c2)CCO3)CC1 [Compound 218, 6-(1-((2,3-dihydrobenzofuran-5-yl)sulfonyl)piperidin-4-yl)-5-methylnicotinonitrile] | > 10000 nM | – |

Results, then the compound that gave them:

| IC50 [1] | IC50 (vs EC80 acetylcholine) | SMILES |
| --- | --- | --- |
| 1450 nM | – | Cc1c(S(=O)(=O)N2CC=C(c3cc4c(cc3Cl)N(C)CCO4)CC2)cnn1C [Compound 376, 6-chloro-7-(1-((1,5-dimethyl-1H-pyrazol-4-yl)sulfonyl)-1,2,3,6-tetrahydropyridin-4-yl)-4-methyl-3,4-dihydro-2H-benzo[b][1,4]oxazine] |
| – | 22 nM | Cc1cc2nccn2nc1N1CCN(S(=O)(=O)c2cnn3c2CCC3)CC1 [Compound 435, 6-(4-((5,6-dihydro-4H-pyrrolo[1,2-b]pyrazol-3-yl)sulfonyl)piperazin-1-yl)-7-methylimidazo[1,2-b]pyridazine] |
| – | 3100 nM | Cn1nc(-c2ccco2)cc1C1CCN(S(=O)(=O)c2cnn(C)c2Cl)CC1 [Compound 590, 1-((5-Chloro-1-methyl-1H-pyrazol-4-yl)sulfonyl)-4-(3-(furan-2-yl)-1-methyl-1H-pyrazol-5-yl)piperidine] |
| – | 46 nM | Cc1cc(S(=O)(=O)N2CCC(c3cn4ncnc4cc3C(F)(F)F)CC2)sn1 [Compound 495, 3-methyl-5-((4-(7-(trifluoromethyl)-[1,2,4]triazolo[1,5-a]pyridin-6-yl)piperidin-1-yl)sulfonyl)isothiazole] |
| – | 59 nM | [2H]C([2H])([2H])Oc1c(S(=O)(=O)N2CCC(c3cn4ncnc4c(F)c3C)CC2)cnn1C [Compound 614, 8-fluoro-6-(1-((5-(methoxy-d3)-1-methyl-1H-pyrazol-4-yl)sulfonyl)piperidin-4-yl)-7-methyl-[1,2,4]triazolo[1,5-a]pyridine] |
| 384 nM | – | Cn1ncc(S(=O)(=O)N2CCC(c3ccc4c(c3)OCO4)CC2)c1Cl [Compound 357, 4-(benzo[d][1,3]dioxol-5-yl)-1-((5-chloro-1-methyl-1H-pyrazol-4-yl)sulfonyl)piperidine] |
| – | 529 nM | COc1ncc(S(=O)(=O)N2CCC(c3cn4ncnc4cc3C)CC2)s1 [Compound 600, 2-methoxy-5-((4-(7-methyl-[1,2,4]triazolo[1,5-a]pyridin-6-yl)piperidin-1-yl)sulfonyl)thiazole] |
| – | 15 nM | O=S(=O)(c1cnn2ccccc12)N1CCC(c2cn3ncnc3cc2Cl)CC1 [Compound 544, 7-chloro-6-(1-(pyrazolo[1,5-a]pyridin-3-ylsulfonyl)piperidin-4-yl)-[1,2,4]triazolo[1,5-a]pyridine] |
| – | > 10000 nM | Cc1cc2ncnn2cc1C1CCN(S(=O)(=O)c2cnn(C)c2CN2Cc3ncccc3C2=O)CC1 [Compound 597, 6-((1-Methyl-4-((4-(7-methyl-[1,2,4]triazolo[1,5-a]pyridin-6-yl)piperidin-1-yl)sulfonyl)-1H-pyrazol-5-yl)methyl)-6,7-dihydro-5H-pyrrolo[3,4-b]pyridin-5-one] |
| – | 6920 nM | Cc1nc2n(c1C1CCN(S(=O)(=O)c3cnn(C)c3C(F)F)CC1)CCCC2 [Compound 465, 3-(1-((5-(difluoromethyl)-1-methyl-1H-pyrazol-4-yl)sulfonyl)piperidin-4-yl)-2-methyl-5,6,7,8-tetrahydroimidazo[1,2-a]pyridine] |
| – | 85 nM | Cn1ncc(S(=O)(=O)N2CCC(c3cn4ncnc4cc3F)CC2)c1C#N [Compound 402, 4-((4-(7-fluoro-[1,2,4]triazolo[1,5-a]pyridin-6-yl)piperidin-1-yl)sulfonyl)-1-methyl-1H-pyrazole-5-carbonitrile] |
| – | 72 nM | Cc1cc2nccnc2cc1C1CCN(S(=O)(=O)c2cnn(C)c2C)CC1 [Compound 425, 6-(1-((1,5-dimethyl-1H-pyrazol-4-yl)sulfonyl)piperidin-4-yl)-7-methylquinoxaline] |
